# Laboratory results taken from the NIST ThermoML archive (doi:10.1016/j.fluid.2019.03.004).
# ± gives the expanded uncertainty stated by the source.
# Conditions: Liquid, Transpiration method
smiles,measurement,setting,value
C=CCc1ccc(OC)cc1 [1-allyl-4-methoxybenzene],vapor or sublimation pressure,279.1 K,0.00378 ± 0.00025 kPa
same,vapor or sublimation pressure,284.1 K,0.00583 ± 0.00041 kPa
same,vapor or sublimation pressure,288.9 K,0.00912 ± 0.00062 kPa
same,vapor or sublimation pressure,293.8 K,0.01395 ± 0.00092 kPa
same,vapor or sublimation pressure,298.8 K,0.02153 ± 0.0014 kPa
same,vapor or sublimation pressure,303.7 K,0.03168 ± 0.002 kPa
same,vapor or sublimation pressure,308.8 K,0.04509 ± 0.0029 kPa
same,vapor or sublimation pressure,313.7 K,0.06571 ± 0.0042 kPa
same,vapor or sublimation pressure,318.2 K,0.09199 ± 0.0058 kPa
same,vapor or sublimation pressure,323.2 K,0.1278 ± 0.008 kPa
C=CCc1ccc(O)c(OC)c1 [2-hydroxy-5-allylanisole],vapor or sublimation pressure,281.1 K,0.0003 ± 2e-05 kPa
same,vapor or sublimation pressure,283.7 K,0.00039 ± 3e-05 kPa
same,vapor or sublimation pressure,289 K,0.00066 ± 5e-05 kPa
same,vapor or sublimation pressure,293.9 K,0.00111 ± 8e-05 kPa
same,vapor or sublimation pressure,298.9 K,0.00179 ± 0.00012 kPa
same,vapor or sublimation pressure,303.7 K,0.00287 ± 0.0002 kPa
same,vapor or sublimation pressure,308.7 K,0.00447 ± 0.0003 kPa
same,vapor or sublimation pressure,313.7 K,0.00709 ± 0.00049 kPa
same,vapor or sublimation pressure,318.9 K,0.01038 ± 0.00069 kPa
same,vapor or sublimation pressure,323.6 K,0.01507 ± 0.00099 kPa
same,vapor or sublimation pressure,328.6 K,0.02241 ± 0.0015 kPa
same,vapor or sublimation pressure,333.6 K,0.03329 ± 0.0022 kPa
same,vapor or sublimation pressure,338.5 K,0.04891 ± 0.0031 kPa
same,vapor or sublimation pressure,343.5 K,0.06869 ± 0.0043 kPa
C/C=C/c1ccc(O)c(OC)c1 [2-methoxy-4-(1E)-1-propen-1-yl-phenol],vapor or sublimation pressure,313.2 K,0.00241 ± 0.00017 kPa
same,vapor or sublimation pressure,315.2 K,0.00289 ± 0.0002 kPa
same,vapor or sublimation pressure,316.2 K,0.00313 ± 0.0002 kPa
same,vapor or sublimation pressure,318.2 K,0.00371 ± 0.00025 kPa
same,vapor or sublimation pressure,320.3 K,0.00449 ± 0.0003 kPa
same,vapor or sublimation pressure,323.2 K,0.00561 ± 0.0004 kPa
same,vapor or sublimation pressure,325.2 K,0.00657 ± 0.00046 kPa
same,vapor or sublimation pressure,328.1 K,0.00838 ± 0.00056 kPa
same,vapor or sublimation pressure,330.2 K,0.00975 ± 0.00066 kPa
same,vapor or sublimation pressure,333.2 K,0.01216 ± 0.00081 kPa
same,vapor or sublimation pressure,336.3 K,0.01528 ± 0.001 kPa
same,vapor or sublimation pressure,338.2 K,0.01783 ± 0.0012 kPa
same,vapor or sublimation pressure,340.2 K,0.02046 ± 0.0013 kPa
same,vapor or sublimation pressure,343.2 K,0.02507 ± 0.0016 kPa
same,vapor or sublimation pressure,345.1 K,0.02835 ± 0.0018 kPa
same,vapor or sublimation pressure,348.2 K,0.03558 ± 0.0023 kPa
same,vapor or sublimation pressure,350.1 K,0.04019 ± 0.0026 kPa
same,vapor or sublimation pressure,353.1 K,0.05109 ± 0.0033 kPa
same,vapor or sublimation pressure,356.1 K,0.06297 ± 0.004 kPa
same,vapor or sublimation pressure,358.1 K,0.07097 ± 0.0045 kPa
C/C=C/c1ccc(OC)cc1 [(E)-1-(4-methoxyphenyl)propene],vapor or sublimation pressure,296.5 K,0.00567 ± 0.00041 kPa
same,vapor or sublimation pressure,300.4 K,0.00774 ± 0.00054 kPa
same,vapor or sublimation pressure,304.4 K,0.0112 ± 0.00076 kPa
same,vapor or sublimation pressure,308.4 K,0.01507 ± 0.00099 kPa
same,vapor or sublimation pressure,312.3 K,0.02056 ± 0.0013 kPa
same,vapor or sublimation pressure,313.2 K,0.02178 ± 0.0014 kPa
same,vapor or sublimation pressure,316.4 K,0.02753 ± 0.0018 kPa
same,vapor or sublimation pressure,318.5 K,0.03262 ± 0.0021 kPa
same,vapor or sublimation pressure,321.4 K,0.04178 ± 0.0027 kPa
same,vapor or sublimation pressure,323.4 K,0.04533 ± 0.0029 kPa
same,vapor or sublimation pressure,326.4 K,0.05539 ± 0.0035 kPa
same,vapor or sublimation pressure,328.4 K,0.06574 ± 0.0042 kPa
same,vapor or sublimation pressure,331.5 K,0.08089 ± 0.0051 kPa
same,vapor or sublimation pressure,333.4 K,0.09361 ± 0.0059 kPa
